In patent EP0286825A2, “Use of 3'-fluro-3' deoxythymidine for the manufacture of a medicament for the treatment of virus infections” (Max-Planck-Gesellschaft zur Förderung der Wissenschaften …, priority 1987, dated 1988):
Read-outs that look alike come from different tables or passages of the source.

How the values were obtained:
HIV [1] = assay: microbe, parasite or virus in culture; assay type: cell-based; details: for EC50: Human immunodeficiency virus 1, MT4, read-out: concentration of active material that protects the cells with half maximum action against the pathogenic effect of HIV
MT₄-cells = assay: Toxicity to MT4 cells in the absence of HIV, incorporation of thymidine; details: MT₄ cells without HIV, Fig. 5, compared with the other compounds
HIV [2] = assay type: cell-based
[3] = system: peripheral blood lymphocytes; assay: Viability and cell number of the PHA stimulated peripheral blood lymphocytes; details: counts from thymidine incorporation
HIV [4] = assay type: cell-based; remark: listed apart in the source

`[N-]=[N+]=N[C@H]1C[C@H](n2cnc3c(O)ncnc32)O[C@@H]1CO` [3ʹ-azido-2ʹ,3ʹ-dideoxyinosine] was tested, and the “rate of thymidine incorporation in the HIV infected cell line” value (HIV [1]; Fig. 5) was “nearly equalled that of non-infected T₄ cell lines” and the Toxicity (MT₄-cells) was “higher”.
`Cc1cn([C@H]2C[C@H](N=[N+]=[N-])[C@@H](CO)O2)c(=O)[nH]c1=O` [AZT, azido-thymidine] was tested, and the “%B/Bo” value (HIV [2]; AZT 0.01 uM, day 4) was 54.2%, the “ng p24/ml” value (HIV [2]; AZT 0.01 uM, day 4) was 3.6 ng p24/ml and the “%B/Bo” value (HIV [2]; AZT 0.01 uM, day 7) was 62.3%. For the same compound, the “ng p24/ml” value (HIV [2]; AZT 0.01 uM, day 7) was 2.7 ng p24/ml, the “%B/Bo” value (HIV [2]; AZT 0.01 uM, day 11) was 12.0% and the “ng p24/ml” value (HIV [2]; AZT 0.01 uM, day 11) was 20 ng p24/ml. For the same compound, the “%B/Bo” value (HIV [2]; AZT 0.01 uM, day 14) was 6.2%, the “ng p24/ml” value (HIV [2]; AZT 0.01 uM, day 14) was 20 ng p24/ml and the “%B/Bo” value (HIV [2]; AZT 0.1 uM, day 4) was 53.0%. For the same compound, the “ng p24/ml” value (HIV [2]; AZT 0.1 uM, day 4) was 3.7 ng p24/ml, the “%B/Bo” value (HIV [2]; AZT 0.1 uM, day 7) was 75.2% and the “ng p24/ml” value (HIV [2]; AZT 0.1 uM, day 7) was 1.6 ng p24/ml. The “%B/Bo” value (HIV [2]; AZT 0.1 uM, day 11) was 78.6%, the “ng p24/ml” value (HIV [2]; AZT 0.1 uM, day 11) was 1.3 ng p24/ml and the “%B/Bo” value (HIV [2]; AZT 0.1 uM, day 14) was 67.1%. The “ng p24/ml” value (HIV [2]; AZT 0.1 uM, day 14) was 2.3 ng p24/ml, the “%B/Bo” value (HIV [2]; AZT 1 uM, day 4) was 53.1% and the “ng p24/ml” value (HIV [2]; AZT 1 uM, day 4) was 3.7 ng p24/ml. The “%B/Bo” value (HIV [2]; AZT 1 uM, day 7) was 68.2%, the “ng p24/ml” value (HIV [2]; AZT 1 uM, day 7) was 2.2 ng p24/ml and the “%B/Bo” value (HIV [2]; AZT 1 uM, day 11) was 79.8%. For the same compound, the “ng p24/ml” value (HIV [2]; AZT 1 uM, day 11) was 1.25 ng p24/ml, the “%B/Bo” value (HIV [2]; AZT 1 uM, day 14) was 84.4% and the “ng p24/ml” value (HIV [2]; AZT 1 uM, day 14) was 0.94 ng p24/ml. For the same compound, the “toxicity against the PBL” value [3] was “do not show toxicity”, the “CPM/1+06 CELLS” value (HIV [4]; AZT 0.01UM, day 7) was 1.78E+03 CPM/1+06 CELLS and the CPM/ml (HIV [4]; AZT 0.01UM, day 7) was 5.9E+03 CPM/ml. For the same compound, the “CPM/1+06 CELLS” value (HIV [4]; AZT 0.01UM, day 11) was 7.19E+03 CPM/1+06 CELLS, the CPM/ml (HIV [4]; AZT 0.01UM, day 11) was 2.8E+04 CPM/ml and the “CPM/1+06 CELLS” value (HIV [4]; AZT 0.01UM, day 14) was 2.41E+04 CPM/1+06 CELLS. The CPM/ml (HIV [4]; AZT 0.01UM, day 14) was 1.4E+05 CPM/ml, the “CPM/1+06 CELLS” value (HIV [4]; AZT 0.1UM, day 7) was 8.64E+01 CPM/1+06 CELLS and the CPM/ml (HIV [4]; AZT 0.1UM, day 7) was 3.5E+02 CPM/ml. The “CPM/1+06 CELLS” value (HIV [4]; AZT 0.1UM, day 11) was 2.49E+02 CPM/1+06 CELLS, the CPM/ml (HIV [4]; AZT 0.1UM, day 11) was 1.2E+03 CPM/ml and the “CPM/1+06 CELLS” value (HIV [4]; AZT 0.1UM, day 14) was 9.78E+02 CPM/1+06 CELLS. For the same compound, the CPM/ml (HIV [4]; AZT 0.1UM, day 14) was 3.9E+03 CPM/ml, the “CPM/1+06 CELLS” value (HIV [4]; AZT 1UM, day 7) was 7.66E+02 CPM/1+06 CELLS and the CPM/ml (HIV [4]; AZT 1UM, day 7) was 2.9E+03 CPM/ml. For the same compound, the CPM/ml (HIV [4]; AZT 1UM, day 11) was -8.1E+03 CPM/ml, the “CPM/1+06 CELLS” value (HIV [4]; AZT 1UM, day 14) was 1.55E+02 CPM/1+06 CELLS and the CPM/ml (HIV [4]; AZT 1UM, day 14) was 5.7E+02 CPM/ml.
`Nc1nc2c(ncn2[C@H]2C[C@H](F)[C@@H](CO)O2)c(=O)[nH]1` [3ʹ-fluoro-2ʹ,3ʹ-dideoxyguanosine] was tested, and the EC50 (HIV [1]; MT₄-cells, 1:40 dilution of the HIV parent liquid, thymidine incorporation) was under 1.5 mg/L and the “in vitro therapeutic index” value (HIV [1]; toxic concentration compared with antiviral concentration, MT₄ human cell line) was “approximately 400”.
For `Cc1cn([C@H]2C[C@H](F)[C@@H](CO)O2)c(=O)[nH]c1=O`, the EC50 (HIV [1]) was under 0.002 mg/L.
